Reference: patent US12030878B2 (BRISTOL-MYERS SQUIBB COMPANY, priority 2017, dated 2024)

Tests used:
Assay type in all cases: cell-based
human TLR8 = molecular target: T1, human TLR8 (Homo sapiens, UniProt Q9NR97); assay: TLR8 inhibition reporter assay (HEK-Blue SEAP); settings: HEK-Blue cells overexpressing human TLR8, stimulated with R848 15.9 μM, 22 hour incubation
T1 construct: host or cells: HEK-Blue cells
T1 sequence (Q9NR97 27-1041): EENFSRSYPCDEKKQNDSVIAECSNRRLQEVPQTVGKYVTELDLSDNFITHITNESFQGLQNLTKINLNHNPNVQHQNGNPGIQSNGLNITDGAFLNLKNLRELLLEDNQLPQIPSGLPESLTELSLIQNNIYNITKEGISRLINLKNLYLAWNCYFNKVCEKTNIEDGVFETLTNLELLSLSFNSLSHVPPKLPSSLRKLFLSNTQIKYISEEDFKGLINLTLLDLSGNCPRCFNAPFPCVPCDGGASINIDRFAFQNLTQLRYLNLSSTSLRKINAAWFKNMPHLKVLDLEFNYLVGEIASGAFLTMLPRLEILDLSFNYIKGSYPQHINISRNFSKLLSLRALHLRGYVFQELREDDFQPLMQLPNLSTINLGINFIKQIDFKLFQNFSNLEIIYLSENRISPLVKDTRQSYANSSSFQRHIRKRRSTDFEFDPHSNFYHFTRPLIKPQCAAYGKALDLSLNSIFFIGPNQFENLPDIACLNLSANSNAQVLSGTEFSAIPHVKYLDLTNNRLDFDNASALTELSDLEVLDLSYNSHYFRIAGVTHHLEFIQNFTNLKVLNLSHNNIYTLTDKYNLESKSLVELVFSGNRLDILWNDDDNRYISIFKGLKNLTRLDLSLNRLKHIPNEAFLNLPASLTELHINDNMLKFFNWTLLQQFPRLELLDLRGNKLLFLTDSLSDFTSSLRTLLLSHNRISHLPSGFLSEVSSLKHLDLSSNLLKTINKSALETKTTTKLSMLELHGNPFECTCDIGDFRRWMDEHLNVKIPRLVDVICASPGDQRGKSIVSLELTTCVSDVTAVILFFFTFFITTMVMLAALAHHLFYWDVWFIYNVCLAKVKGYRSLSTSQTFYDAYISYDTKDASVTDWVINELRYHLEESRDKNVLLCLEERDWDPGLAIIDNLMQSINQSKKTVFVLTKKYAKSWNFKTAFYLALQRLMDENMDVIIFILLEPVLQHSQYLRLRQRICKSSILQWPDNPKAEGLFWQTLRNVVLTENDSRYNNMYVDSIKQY
Method in brief: (§1)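 HEK-Blue cells with NF-κB/AP-1-driven SEAP reporter; compounds 0.05 nM-50 μM, 30 min pre-treatment at room temperature, then agonist: gardiquimod 7.5 μM (TLR7), R848 15.9 μM (TLR8) or ODN2006 5 nM (TLR9). SEAP read after 22 h at 37 °C; percent inhibition versus agonist-plus-DMSO and reference-inhibitor wells.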

human TLR9 = molecular target: T2, human TLR9 (Homo sapiens, UniProt Q9NR96); assay: TLR9 inhibition reporter assay (HEK-Blue SEAP); settings: HEK-Blue cells overexpressing human TLR9, stimulated with ODN2006 5 nM, 22 hour incubation
T2 construct: host or cells: HEK-Blue cells
T2 sequence (Q9NR96 26-1032): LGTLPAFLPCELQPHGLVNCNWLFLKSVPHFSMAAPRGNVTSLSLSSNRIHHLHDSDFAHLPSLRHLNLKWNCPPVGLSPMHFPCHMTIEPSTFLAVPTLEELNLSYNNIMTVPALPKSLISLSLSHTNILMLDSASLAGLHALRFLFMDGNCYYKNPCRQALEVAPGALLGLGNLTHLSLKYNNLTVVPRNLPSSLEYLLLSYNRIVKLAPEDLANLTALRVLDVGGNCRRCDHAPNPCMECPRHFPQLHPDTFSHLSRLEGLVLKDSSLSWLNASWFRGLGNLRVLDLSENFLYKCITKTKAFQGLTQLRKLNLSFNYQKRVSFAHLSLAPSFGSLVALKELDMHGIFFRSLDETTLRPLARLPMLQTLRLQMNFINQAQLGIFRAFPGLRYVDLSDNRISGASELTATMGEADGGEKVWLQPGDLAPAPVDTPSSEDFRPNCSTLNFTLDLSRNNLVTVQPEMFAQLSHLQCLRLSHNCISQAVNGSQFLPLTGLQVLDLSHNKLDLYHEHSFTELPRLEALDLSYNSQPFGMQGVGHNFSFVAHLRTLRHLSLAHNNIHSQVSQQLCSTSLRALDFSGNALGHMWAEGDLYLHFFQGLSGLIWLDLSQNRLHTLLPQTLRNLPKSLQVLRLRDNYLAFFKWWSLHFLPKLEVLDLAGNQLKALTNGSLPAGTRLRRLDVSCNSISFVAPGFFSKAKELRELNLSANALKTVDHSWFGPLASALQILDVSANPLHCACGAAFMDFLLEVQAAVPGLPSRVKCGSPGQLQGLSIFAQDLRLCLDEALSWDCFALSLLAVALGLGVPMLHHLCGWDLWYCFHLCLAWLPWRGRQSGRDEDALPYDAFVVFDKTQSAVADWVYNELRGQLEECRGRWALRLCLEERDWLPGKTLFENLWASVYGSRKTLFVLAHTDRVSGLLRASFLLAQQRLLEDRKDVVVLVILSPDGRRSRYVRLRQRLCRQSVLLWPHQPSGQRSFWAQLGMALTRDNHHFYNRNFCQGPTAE
Method in brief: as §1

human TLR7 = molecular target: T3, human TLR7 (Homo sapiens, UniProt Q9NYK1); assay: TLR7 inhibition reporter assay (HEK-Blue SEAP); settings: HEK-Blue cells overexpressing human TLR7, stimulated with gardiquimod 7.5 μM, 22 hour incubation
T3 construct: host or cells: HEK-Blue cells
T3 sequence (Q9NYK1 27-1049): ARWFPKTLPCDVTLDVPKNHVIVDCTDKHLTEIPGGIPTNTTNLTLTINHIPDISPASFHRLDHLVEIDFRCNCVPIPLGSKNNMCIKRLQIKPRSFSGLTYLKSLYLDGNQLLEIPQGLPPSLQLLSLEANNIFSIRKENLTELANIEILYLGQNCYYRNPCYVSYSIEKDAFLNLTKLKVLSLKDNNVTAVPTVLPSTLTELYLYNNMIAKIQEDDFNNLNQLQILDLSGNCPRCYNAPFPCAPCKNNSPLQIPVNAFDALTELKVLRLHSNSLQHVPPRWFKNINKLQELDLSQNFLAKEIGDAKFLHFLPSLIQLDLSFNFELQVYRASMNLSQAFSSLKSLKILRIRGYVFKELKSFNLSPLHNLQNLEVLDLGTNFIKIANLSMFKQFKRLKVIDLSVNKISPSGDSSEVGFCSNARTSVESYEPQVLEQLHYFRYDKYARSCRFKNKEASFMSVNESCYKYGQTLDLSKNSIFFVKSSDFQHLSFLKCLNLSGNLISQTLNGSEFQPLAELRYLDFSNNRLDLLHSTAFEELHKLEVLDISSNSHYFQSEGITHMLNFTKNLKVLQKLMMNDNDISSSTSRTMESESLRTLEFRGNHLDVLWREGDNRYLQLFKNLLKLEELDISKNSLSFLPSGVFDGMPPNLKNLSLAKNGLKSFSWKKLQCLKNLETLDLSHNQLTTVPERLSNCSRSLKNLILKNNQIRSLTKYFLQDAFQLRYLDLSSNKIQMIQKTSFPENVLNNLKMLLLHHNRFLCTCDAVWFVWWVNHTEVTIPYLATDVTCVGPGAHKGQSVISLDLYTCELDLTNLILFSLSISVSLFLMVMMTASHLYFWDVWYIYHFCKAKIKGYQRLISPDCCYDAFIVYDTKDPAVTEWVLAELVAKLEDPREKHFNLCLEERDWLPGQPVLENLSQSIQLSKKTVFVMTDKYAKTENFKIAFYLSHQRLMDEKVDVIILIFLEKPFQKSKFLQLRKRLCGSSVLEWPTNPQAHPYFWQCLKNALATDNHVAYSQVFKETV
Method in brief: as §1

SMILES: Cc1c(-c2[nH]c3ccc(OC4CCN(CC(=O)N(C)C)CC4)cc3c2C(C)C)cn(C)c(=O)c1C [Example 87, 2-(4-((3-isopropyl-2-(1,4,5-trimethyl-6-oxo-1,6-dihydropyridin-3-yl)-1H-indol-5-yl)oxy)piperidin-1-yl)-N,N-dimethylacetamide]
- IC50 (human TLR8): 5.8 nM
- IC50 (human TLR9): 19.6 µM
- IC50 (human TLR7): 33.2 nM

SMILES: Cc1c(-c2[nH]c3ccc(OCC4CCN(CC(=O)N(C)C)CC4)cc3c2C(C)C)cn(C)c(=O)c1C [Example 88, 2-(4-(((3-isopropyl-2-(1,4,5-trimethyl-6-oxo-1,6-dihydropyridin-3-yl)-1H-indol-5-yl)oxy)methyl)piperidin-1-yl)-N,N-dimethylacetamide]
- IC50 (human TLR8): 22.4 nM
- IC50 (human TLR9): 15.3 µM
- IC50 (human TLR7): 50.9 nM

SMILES: Cc1c(-c2[nH]c3ccc(OCC4CCN(CC(=O)N(C)C)CC4)cc3c2C(C)C)cn2cnnc2c1C [Example 89, 2-(4-(((2-(7,8-dimethyl-[1,2,4]triazolo[4,3-a]pyridin-6-yl)-3-isopropyl-1H-indol-5-yl)oxy)methyl)piperidin-1-yl)-N,N-dimethylacetamide]
- IC50 (human TLR8): 16.5 nM
- IC50 (human TLR9): 6.87 µM
- IC50 (human TLR7): 7.6 nM

SMILES: Cc1c(-c2[nH]c3ccc(OC4CCN(CC(=O)N(C)C)CC4)cc3c2C(C)C)cn2cnnc2c1C [Example 90, 2-(4-((2-(7,8-dimethyl-[1,2,4]triazolo[4,3-a]pyridin-6-yl)-3-isopropyl-1H-indol-5-yl)oxy)piperidin-1-yl)-N,N-dimethylacetamide]
- IC50 (human TLR8): 13.3 nM
- IC50 (human TLR9): 12.9 µM
- IC50 (human TLR7): 8.3 nM

SMILES: Cc1cc(-c2[nH]c3ccc(OCC4CCN(CCS(C)(=O)=O)CC4)cc3c2C(C)C)cn2ncnc12 [Example 91, 6-(3-isopropyl-5-((1-(2-(methylsulfonyl)ethyl)piperidin-4-yl)methoxy)-1H-indol-2-yl)-8-methyl-[1,2,4]triazolo[1,5-a]pyridine]
- IC50 (human TLR8): 1 nM
- IC50 (human TLR9): 9.58 µM
- IC50 (human TLR7): 0.7 nM

SMILES: Cc1cc(-c2[nH]c3ccc(OCC4CN(CCS(C)(=O)=O)C4)cc3c2C(C)C)cn2ncnc12 [Example 92, 6-(3-isopropyl-5-((1-(2-(methylsulfonyl)ethyl)azetidin-3-yl)methoxy)-1H-indol-2-yl)-8-methyl-[1,2,4]triazolo[1,5-a]pyridine]
- IC50 (human TLR8): 3.8 nM
- IC50 (human TLR9): 6.04 µM
- IC50 (human TLR7): 1.2 nM

SMILES: Cc1cc(-c2[nH]c3ccc(OCC4CCCNC4)cc3c2C(C)C)cc(C)n1 (stereo not drawn) [Example 94, 2-(2,6-dimethylpyridin-4-yl)-3-isopropyl-5-(piperidin-3-ylmethoxy)-1H-indole]
- IC50 (human TLR8): 4.7 nM
- IC50 (human TLR9): 0.243 µM
- IC50 (human TLR7): 3 nM

SMILES: Cc1cc(-c2[nH]c3ccc(OC4CCN(C(=O)CN(C)C)CC4)cc3c2C(C)C)cc(C)n1 [Example 95, 2-(dimethylamino)-1-(4-((2-(2,6-dimethylpyridin-4-yl)-3-isopropyl-1H-indol-5-yl)oxy)piperidin-1-yl)ethanone]
- IC50 (human TLR8): 10.4 nM
- IC50 (human TLR9): 0.419 µM
- IC50 (human TLR7): 0.5 nM

SMILES: Cc1cc(-c2[nH]c3ccc(OCC4CCN(C(=O)CN(C)C)CC4)cc3c2C(C)C)cc(C)n1 [Example 96, 2-(dimethylamino)-1-(4-(((2-(2,6-dimethylpyridin-4-yl)-3-isopropyl-1H-indol-5-yl)oxy)methyl)piperidin-1-yl)ethan-1-one]
- IC50 (human TLR8): 9.8 nM
- IC50 (human TLR9): 0.346 µM
- IC50 (human TLR7): 2.6 nM

SMILES: Cc1cc(-c2[nH]c3ccc(OCC4CCN(C(=O)CN(C)C)CC4)cc3c2C(C)C)cn(C)c1=O [Example 97, 5-(5-((1-(dimethylglycyl)piperidin-4-yl)methoxy)-3-isopropyl-1H-indol-2-yl)-1,3-dimethylpyridin-2(1H)-one]
- IC50 (human TLR8): 5.6 nM
- IC50 (human TLR9): 16.8 µM
- IC50 (human TLR7): 3.5 nM

SMILES: Cc1cc(-c2[nH]c3ccc(O[C@H]4CCCN(C(=O)CN(C)C)C4)cc3c2C(C)C)cn(C)c1=O [Example 98, (S)-5-(5-((1-(dimethylglycyl)piperidin-3-yl)oxy)-3-isopropyl-1H-indol-2-yl)-1,3-dimethylpyridin-2(1H)-one]
- IC50 (human TLR8): 16.5 nM
- IC50 (human TLR9): 11.1 µM
- IC50 (human TLR7): 7.6 nM

SMILES: Cc1cc(-c2[nH]c3ccc(O[C@H]4CCCN(C(=O)CN(C)C)C4)cc3c2C(C)C)cn2ncnc12 [Example 99, (S)-2-(dimethylamino)-1-(3-((3-isopropyl-2-(8-methyl-[1,2,4]triazolo[1,5-a]pyridin-6-yl)-1H-indol-5-yl)oxy)piperidin-1-yl)ethan-1-one]
- IC50 (human TLR8): 25.2 nM
- IC50 (human TLR9): 4.87 µM
- IC50 (human TLR7): 3.1 nM

SMILES: Cc1cc(-c2[nH]c3ccc(OC4CCN(C(=O)CN(C)C)CC4)cc3c2C(C)C)cn(C)c1=O [Example 100, 5-(5-((1-(dimethylglycyl)piperidin-4-yl)oxy)-3-isopropyl-1H-indol-2-yl)-1,3-dimethylpyridin-2(1H)-one]
- IC50 (human TLR8): 10.4 nM
- IC50 (human TLR9): 9.84 µM
- IC50 (human TLR7): 4.1 nM
